Results reported in patent US20250027072A1, “METHODS AND CO[…] TO ENGINEERED CANNABINOID RECEPTORS” (priority 2021, published 2025).
pEC50: −log10 of the molar value. Where “and” joins values, the source holds several entries; their conditions need not be identical. Equal values may be shown once. Entries after “also recorded” stand apart in the source; their conditions may differ. Read-outs that look alike come from different tables or passages of the source.

Key:
Format in all cases: cell-based
[1] = molecular target: T1, human Cannabinoid Receptor 1 (CB1R) (Homo sapiens, UniProt P21554); conditions: for signaling at CB1R in terpene screen: terpenes at 100 μM, normalized to 100 μM ACEA; for relative fluorescence of the ACEA positive control at CB1R: compounds at 10 nM, 100 μM ACEA control; for pEC50: read-out: EC50 at CB1R, synthetic cannabinoid dose response; for Normalized Activity at 1 μM, CB1R: PINACA compounds
T1 construct: syn-prepro (synthetic yeast pre-pro secretion leader) (N); expressed in transfected cells; host or cells: Saccharomyces cerevisiae BY4741-derived strain (ste2, sst2, far1 knocked out); Gpa1-Gαi3 chimera

[2] = molecular target: human cannabinoid receptor type II (CB2R) (Homo sapiens, UniProt P34972); assay: cell-based; parameters: Normalized Activity at 1 μM, CB2R; other: PINACA compounds, 1 μM; Normalized Activity at 1 μm, CB2R; other: 5-fluoro PB-22 isomers, 1 μm; other: MFα-CB2R, ST03 sterol strain, pH 5.8; activity against CB2R; other: at 10 nM, dose response; preference at CB2R of ADB-BINACA over AB-PINACA; signaling at CB2R in synthetic cannabinoid screen; fused on or other part: yeast mating factor alpha (MFα) pre-pro leader fused at the N-terminus as a trafficking signal; conditions: for signaling at CB2R in synthetic cannabinoid screen: compounds at 1 μM; for pEC50: MFα-CB2R, ST03 sterol strain, pH 5.8
Method: (§1) To efficiently transduce signals from the human machinery to the yeast pathway, the yeast 5 C-terminal residues of the G-alpha gene GPA1 were replaced with the sequence of the Gαi3 human G-alpha variant as previously described (Brown et al. 2000). ZsGreen1 was used to report on the activity of the pathway, integrating it into the genome in place of the pheromone-inducible Fig1 gene (FIG. 14A).
(§2) Yeast colonies were picked and grown overnight to saturation in pH 5.8 SD-His media in a 2.2 mL deep well plate (Axygen) grown in a plate-shaking incubator (30° C., 1000 rpm, 3 mm orbital). In the morning cultures were diluted 1:10 or 1:25 in SD-His media buffered to pH 7.1 with 100 mM MOPSO (unless otherwise specified). Ligands were added to the culture and incubated with shaking for 8 hours. Cells were then washed three times with ice-cold Tris buffer (pH 7) and diluted 1:20 for cytometry. All cytometry was performed on a Sony SA3800 spectral analyzer. Each sample was tested for 10,000 events, and read at a rate of 1,000 events per second. All assays as reported here were filtered only for singlet populations.

[3] = system: human cannabinoid receptor type II (CB2R); assay: cell-based; conditions: dual biosensor screen at 1 μM
Method: as §1, §2

[4] = system: human Cannabinoid Receptor 1 (CB1R)
[5] = read-out: EC50 at CB2R, dose response
[6] = syn-prepro-Δ89-CB1R, wild type ergosterol strain

Chain of human cannabinoid receptor type II (CB2R) (Homo sapiens, UniProt P34972) (P34972 whole entry, the tested form may be a part): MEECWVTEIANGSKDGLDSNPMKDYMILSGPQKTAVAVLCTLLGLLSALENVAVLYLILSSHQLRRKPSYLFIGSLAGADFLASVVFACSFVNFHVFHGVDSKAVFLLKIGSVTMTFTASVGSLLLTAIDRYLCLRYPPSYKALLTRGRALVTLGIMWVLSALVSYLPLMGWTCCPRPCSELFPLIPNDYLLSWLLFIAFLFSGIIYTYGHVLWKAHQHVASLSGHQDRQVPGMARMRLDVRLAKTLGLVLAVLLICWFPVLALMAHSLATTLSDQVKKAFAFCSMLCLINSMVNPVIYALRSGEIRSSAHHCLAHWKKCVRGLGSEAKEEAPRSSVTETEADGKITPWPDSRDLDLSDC

CC(C)=CCCC(C)CCO (stereo not drawn) [(+)-β-Citronellol]
signaling at CB1R in terpene screen [1]: activate CB1R

CC1(C)C(C(=O)c2cn(CCN3CCOCC3)c3ccccc23)C1(C)C [A-796260]
signaling at CB2R in synthetic cannabinoid screen [2]: among the top CB2R targets

CC1(C)C(C(=O)c2cn(CC3CCOCC3)c3ccccc23)C1(C)C [A-834735]
pEC50 [2, 5]: 8.13
receptor bias CB2R versus CB1R [3]: CB2R-biased

COCCn1c(C)c(C)s/c1=N\C(=O)C1C(C)(C)C1(C)C [A-836339, 2,2,3,3-Tetramethyl-cyclopropanecarboxylic Acid [3-(2-Methoxy-ethyl)-4,5-dimethyl-3H-thiazol-(2Z)-ylidene]-amide]
pEC50 [2, 5]: 7.79

CC(C)[C@H](NC(=O)c1cn(Cc2ccccc2)c2ccccc12)C(N)=O [AB-BICA]
signaling at CB2R in synthetic cannabinoid screen [2]: poor CB2R signalers
signaling at CB1R in synthetic cannabinoid screen relative to 100 μM ACEA positive control ([1]; compounds at 1 μM): CB1R agonists

CC(C)[C@H](NC(=O)c1cn(CC2CCCCC2)c2ccccc12)C(N)=O [AB-CHMICA]
signaling at CB2R in synthetic cannabinoid screen [2]: poor CB2R signalers
signaling at CB1R in synthetic cannabinoid screen relative to 100 μM ACEA positive control ([1]; compounds at 1 μM): CB1R agonists

CC(C)[C@H](NC(=O)c1nn(Cc2ccc(F)cc2)c2ccccc12)C(N)=O [AB-FUBINACA]
relative fluorescence of the ACEA positive control at CB1R [1]: strong signaling
signaling at CB1R in synthetic cannabinoid screen relative to 100 μM ACEA positive control ([1]; compounds at 1 μM): maximal fluorescence
maximal signaling in CB1R dose response ([1]; dose-response curves): high maximal signaling
pEC50 [1, 6]: 9.18

CCCCC/C=C\C/C=C\C/C=C\C/C=C\CCCC(=O)NCCCl [ACEA]
drop in sensitivity of Δ89 constructs compared to full-length counterparts [4]: 3.6-3.8 fold and 3.8 fold
EC50, dose response with CB1R [1]: low μM range

CCCCCn1nc(C(=O)NC(C(N)=O)C(C)(C)C)c2ccccc21 (stereo not shown) [ADB-PINACA]
signaling at CB2R in synthetic cannabinoid screen [2]: high activity
relative fluorescence of the ACEA positive control at CB1R [1]: strong signaling
signaling at CB1R in synthetic cannabinoid screen relative to 100 μM ACEA positive control ([1]; compounds at 1 μM): maximal fluorescence
EC50 at CB1R, synthetic cannabinoid dose response [1, 6]: low nanomolar range
pEC50 [1, 6]: 10.05

CN1CCCCC1Cn1cc(C(=O)c2cc([N+](=O)[O-])ccc2I)c2ccccc21 (stereo not shown) [AM-1241]
signaling at CB1R in synthetic cannabinoid screen relative to 100 μM ACEA positive control [1]: at most approximately half the relative fluorescence of the ACEA positive control

CCN(CC)CCN1C(=O)CN=C(c2ccccc2F)c2cc(Cl)ccc21 [Flurazepam]
signaling at CB1R in synthetic cannabinoid screen relative to 100 μM ACEA positive control ([1]; compounds at 1 μM): did not show strong signal; also recorded: does not strongly activate the CB1R

CCCCCCC(C)(C)c1cc(O)c2c(c1)OC(C)(C)[C@H]1CC=C(CO)C[C@H]21 [HU-211]
signaling at CB1R in synthetic cannabinoid screen relative to 100 μM ACEA positive control [1]: at most approximately half the relative fluorescence of the ACEA positive control

CCCCCn1c(O)c(N=NC(=O)c2ccccc2)c2ccc(OC)cc21 [MDA 77]
signaling at CB1R in synthetic cannabinoid screen relative to 100 μM ACEA positive control ([1]; compounds at 1 μM): at most approximately half the relative fluorescence of the ACEA positive control

CCCCCn1cc(-c2nc(CN(CC)CC)cs2)c2ccccc21 [PTI-1]
signaling at CB2R in synthetic cannabinoid screen [2]: poor CB2R signalers
signaling at CB1R in synthetic cannabinoid screen relative to 100 μM ACEA positive control ([1]; compounds at 1 μM): CB1R agonists

CC(C)c1c(O)ccc2c1CC[C@H]1C(C)(C)CCC[C@]21C [Totarol]
pEC50 ([2]; EC50 at CB2R, dose response): 6.31
activity against CB2R ([2]; at 10 nM, dose response): active

Cc1c(C(=O)c2ccccc2)c(N)c(-c2ccccc2)n1Cc1ccc(Cl)cc1 [URB447]
signaling at CB1R in synthetic cannabinoid screen relative to 100 μM ACEA positive control ([1]; compounds at 1 μM): at most approximately half the relative fluorescence of the ACEA positive control

COc1ccc(C(=O)c2c(C)n(CCN3CCOCC3)c3cc(Br)ccc23)cc1 [WIN54,461]
signaling at CB1R in synthetic cannabinoid screen relative to 100 μM ACEA positive control ([1]; compounds at 1 μM): at most approximately half the relative fluorescence of the ACEA positive control

CCCCCn1nc(C(=O)N[C@H](C(N)=O)C(C)C)c2ccccc21 [drawing 1]
Normalized Activity at 1 μM, CB1R [1]: 0.550

CCCCCn1nc(C(=O)NC(C(N)=O)C(C)(C)C)c2ccccc21 (stereo not shown) [drawing 2]
Normalized Activity at 1 μM, CB2R ([2]; PINACA compounds, 1 μM): 0.700
Normalized Activity at 1 μM, CB1R [1]: 0.590

O=C(Oc1ccnc2ccccc12)c1cn(CCCCCF)c2ccccc12 [drawing 16]
Normalized Activity at 1 μm, CB2R ([2]; 5-fluoro PB-22 isomers, 1 μm): 0.247
Normalized Activity at 1 μm, CB1R ([1]; 5-fluoro PB-22 isomers, 1 μm): 0.829

C=C1CCC[C@]2(C)CC[C@@H](C(C)(C)O)C[C@@H]12 [β-Eudesmol]
signaling at CB1R at lower concentration ([1]; 10 μM, dose response): showed signaling
signaling at CB1R in terpene screen [1]: activate CB1R
